Laboratory results as given in patent US20220323594A1, “LIPIDATED CATIONIC PEPTIDE-PEG COMPOSITIONS FOR NUCLEIC ACID DELIVERY” (NUTCRACKER THERAPEUTICS, INC., priority 2019, published 2022).

Legend:
[1] = Dynamic light scattering (DLS) of mRNA/peptoid formulations: particle size and polydispersity; assay type: physicochemical; details: Fluc mRNA/peptoid formulation; for Size PDI: size polydispersity index by DLS, 5:1 mass ratio; for Size (nm): volume average particle size/diameter by DLS, 5:1 mass ratio peptoid:cargo
Procedure, shortened: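 Fluc mRNA was complexed with amino lipidated peptoids by pipetting at a 5:1 peptoid:cargo mass ratio, peptoid in ethanol and mRNA in PBS pH 5.5 (1:3 volume ratio). DLS gave volume-average diameter (nm) and polydispersity index.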

[2] = tested on: HeLa cells; assay: In vitro expression of firefly luciferase (Fluc) after treatment with Fluc mRNA/amino lipidated peptoid formulations, no PEG or 2% DMG-PEG2000; assay type: cell-based
Procedure, shortened: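 Peptoid/Fluc mRNA particles (5:1 w/w), without PEG or with DMG-PEG2000 pre-mixed into peptoid at 2% w/w, dosed at 100 ng mRNA/well on HeLa cells. Luciferase luminescence (RLU) read after 6 h and 24 h.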

[3] = tested on: Balb/c mice; assay: In vivo whole-body expression of Fluc following IV administration; details: Balb/c mice (n=3), IV tail-vein, 0.5 mg/kg, 5:1 peptoid:mRNA, 2% w/w DMG-PEG2000, 8 hours
Method: (§1) Amino lipidated peptoid delivery vehicles are effective for in vivo administration of Fluc mRNA to Balb/c mice (n=3) through multiple routes of administration. Briefly, representative amino lipidated peptoid/Fluc formulations (prepared at a 5:1 mass ratio of amino lipidated peptoid:mRNA unless noted, with 2% w/w DMG-PEG2000) were administered at a dose of 0.5 mg/kg via a tail-vein injection, and the resulting bioluminescence was quantified after 8 hours.

[4] = mRNA encapsulation by fluorescence of Qubit RNA HS dye before and after lysis with Triton X-100; assay type: physicochemical; details: percentage of mRNA encapsulation; Fluc mRNA/peptoid formulation, 5:1 mass ratio
Procedure, shortened: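 Peptoid/Fluc mRNA nanoparticles were formed by pipette mixing at a 5:1 peptoid:mRNA mass ratio. Percent encapsulation came from Qubit RNA HS dye fluorescence before versus after particle lysis with Triton X-100.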

[5] = tested on: Balb/c mice; assay: In vivo organ-specific bioluminescence (biodistribution of Fluc) following IV administration
Method: as §1, with “hours. […] Organ-specific bioluminescence was quantified by sacrificing the treated animal, dissecting out the organs of interest, and separately quantifying the resulting bioluminescence. […] FIG. 7C depicts a bar chart quantifying the organ-specific biodistribution of the formulations as a function of total photon flux.” for “hours.”

[6] = tested on: Balb/c mice; assay: In vivo expression of Fluc following subcutaneous or intramuscular administration
Method: In addition to IV administration, amino lipidated peptoids are also effective for local administration of mRNA through subcutaneous (S.C.) or intramuscular (I.M.) routes of administration. […] For these examples, mRNA was administered at a dose of 0.1 milligrams/kilogram (mpk) for subcutaneous or 0.05 mpk for intramuscular. In these cases, the overall expression was higher following intramuscular injections. […] Additional experiments were carried out to assess any variability in biodistribution as a function of the loading mass ratio of amino lipidated peptoid to the Fluc mRNA. FIG. 8A depicts a plot of total photon flux for formulations of amino lipidated peptoid compound 28 with 2% DMG-PEG 2000 and Fluc mRNA at different peptoid:mRNA ratios (1:1, 2:1, 5:1, 7.5:1 and 10:1).

[7] = tested on: HeLa cells; assay: In vitro Fluc expression with variable peptoid:mRNA mass ratio, 2% DMG-PEG2000; assay type: cell-based; details: 24 h; for Observed Luciferase Expression (RLU) for Given Formulation Mass Ratio 2:1: 2% (w/w) DMG-PEG2000, peptoid:mRNA 2:1; for Observed Luciferase Expression (RLU) for Given Formulation Mass Ratio 3.5:1: 2% (w/w) DMG-PEG2000, peptoid:mRNA 3.5:1; for Observed Luciferase Expression (RLU) for Given Formulation Mass Ratio 5:1: 2% (w/w) DMG-PEG2000, peptoid:mRNA 5:1; for Observed Luciferase Expression (RLU) for Given Formulation Mass Ratio 7.5:1: 2% (w/w) DMG-PEG2000, peptoid:mRNA 7.5:1
Procedure, shortened: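 Fluc mRNA particles formulated at 2:1, 3.5:1, 5:1 and 7.5:1 peptoid:mRNA (w/w), with DMG-PEG2000 at 2% (w/w) relative to amino lipidated peptoid. HeLa cells treated for 24 hours; Fluc expression read as bioluminescence (RLU).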

[8] = MTT viability assay after treatment with Fluc mRNA/amino lipidated peptoid formulations; assay type: cell-based; details: human, HeLa cells
Procedure, shortened: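 Formulations (peptoid:mRNA 5:1 mass ratio, 2% w/w DMG-PEG2000) were applied at 100 ng Fluc mRNA per well for 8 h, followed by 48 h of growth. Cells then received 1.5 mg/mL MTT for 2 h, and formazan signal was normalized to untreated cells.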

[9] = no PEG, peptoid:Fluc mRNA 5:1 w/w, 100 ng/well, 6 h of treatment
[10] = no PEG, peptoid:Fluc mRNA 5:1 w/w, 100 ng/well, 24 h of treatment
[11] = with 2% (w/w) DMG-PEG2000, peptoid:mRNA 5:1, 6 h after treatment
[12] = with 2% (w/w) DMG-PEG2000, peptoid:mRNA 5:1, 24 h after treatment

| Size PDI [1] | Size (nm) [1] | % Encapsulation [4] | Compound | Luciferase Expression (RLU) 6 h [2, 9] | Luciferase Expression (RLU) 24 h [2, 10] | Luciferase Expression (RLU) 6 h [2, 11] | Luciferase Expression (RLU) 24 h [2, 12] | Total Flux (photons/sec), whole body [3] | Total Flux (p/s) Liver ([5]; dissected liver) | Total Flux (p/s) Lung ([5]; dissected lung) | Total Flux (p/s) Spleen ([5]; dissected spleen) | Total Flux (photons/sec) I.M. (0.05 mpk) ([6]; intramuscular, mRNA 0.05 mpk) | Total Flux (photons/sec) S.C. (0.1 mpk) ([6]; subcutaneous, mRNA 0.1 mpk) | Observed Luciferase Expression (RLU) for Given Formulation Mass Ratio 2:1 [7] | Observed Luciferase Expression (RLU) for Given Formulation Mass Ratio 3.5:1 [7] | Observed Luciferase Expression (RLU) for Given Formulation Mass Ratio 5:1 [7] | Observed Luciferase Expression (RLU) for Given Formulation Mass Ratio 7.5:1 [7] | viability at 8 h, 500 ng/well ([8]; Relative Viability (%) 2% PEG) | viability at 8 h, 500 ng/well ([8]; Relative Viability (%) No PEG) | viability at 8 h, 500 ng/well ([8]; viability) |
| --- | --- | --- | --- | --- | --- | --- | --- | --- | --- | --- | --- | --- | --- | --- | --- | --- | --- | --- | --- | --- |
| 0.009 | 157 nm | 92.6% | CCCCCCCCCCN(CC(N)=O)C(=O)CN(CCCCCCCCCC)C(=O)CN(CCc1ccccc1)C(=O)CN(CCc1ccccc1)C(=O)CN(CCN)C(=O)CN(CCc1ccccc1)C(=O)CN(CCc1ccccc1)C(=O)CNCCN [Compound 10] | 1.88E+03 RLU | 7.01E+02 RLU | 2.21E+02 RLU | 2.43E+02 RLU | 1.04E+07 photons/sec | 5.85E+05 p/s | 5.14E+06 p/s | 2.17E+06 p/s | 9.01E+05 photons/sec | 1.40E+05 photons/sec | 5.57E+03 RLU | 1.23E+04 RLU | 3.51E+04 RLU | 3.57E+02 RLU | 108% | 101% | – |
| 0.37 | 472.8 nm | 90.3% | CCCCCCCCCCN(CC(=O)N(CCN)CC(=O)N(CCc1ccccc1)CC(=O)N(CCc1ccccc1)CC(=O)N(CCCCCCCCCC)CC(=O)N(CCN)CC(=O)N(CCc1ccccc1)CC(=O)N(CCc1ccccc1)CC(N)=O)C(=O)CN(CCc1ccccc1)C(=O)CN(CCc1ccccc1)C(=O)CNCCN [Compound 17] | 6.84E+02 RLU | 5.63E+02 RLU | 8.67E+01 RLU | 1.80E+02 RLU | – | – | – | – | – | – | 2.72E+03 RLU | 1.56E+03 RLU | 1.60E+03 RLU | 3.75E+01 RLU | 91.7% | 88% | – |
| 0.308 | 364.7 nm | 88.3% | CCCCCCCCCCCCCCCCCCN(CC(N)=O)C(=O)CN(CCCCCCCCCCCCCCCCCC)C(=O)CN(CCc1ccccc1)C(=O)CN(CCc1ccccc1)C(=O)CN(CCN)C(=O)CN(CCc1ccccc1)C(=O)CN(CCc1ccccc1)C(=O)CN(CCN)C(=O)CN(CCc1ccccc1)C(=O)CN(CCc1ccccc1)C(=O)CNCCN [Compound 5] | 9.60E+01 RLU | 5.36E+02 RLU | 3.46E+02 RLU | 1.22E+02 RLU | – | – | – | – | – | – | 5.81E+02 RLU | 1.15E+03 RLU | 9.21E+02 RLU | 1.14E+03 RLU | 91.2% | 56.8% | < 80% |
